Test systems include HT-29; NCI-H522; HOP-62; M14; CCRF-CEM; RPMI-8226; HOP-92; MDA-MB-231; OVCAR-8; SF-539; HL-60; SN12C; 786-0; SK-MEL-28; NCI-H460; KM12; COLO 205; MOLT-4; IGROV-1; CAKI-1.
Holding throughout (experiment): growth of human tumour cells (NCI), 48 h

The values below come from ChEMBL document CHEMBL1201862, “PubChem BioAssay data set” (2004).

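These data come from cells grown in 96-well plates and exposed to compound for 48 hours at five concentrations. GI50 marks 50% less growth.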 Calls of active or inactive are those of the source. No stated cut-off is given here; in the data, active = GI50 up to about 1.1 µM and inactive = higher. A value given as a limit tells only on which side of the number the result lay.

For `Cc1ccc(S(=O)(=O)NC(=O)NS(=O)(=O)O)cc1`, the GI50 in the assay on HT-29 is > 100 µM (inactive); in the assay with NCI-H522, > 100 µM (inactive); in the assay on HOP-62, > 100 µM (inactive); with M14 it was > 100 µM (inactive); in the assay with CCRF-CEM, > 100 µM (inactive); with RPMI-8226, 0.0771 µM (active). For the same molecule, the GI50 with HOP-92, in the assay with MDA-MB-231, in the assay with OVCAR-8, in the assay on SF-539, with HL-60 and in the assay on SN12C was > 100 µM (inactive) in each case. Also, the GI50 with 786-0, with SK-MEL-28, in the assay on NCI-H460, in the assay on KM12, in the assay on COLO 205 and in the assay on MOLT-4 was > 100 µM (inactive) each time. In the assay with IGROV-1, the GI50 was > 100 µM (inactive).
Regarding `O=C1CC(c2cccc(Br)c2)n2cccc21` (stereo unspecified), the GI50 in the assay with HT-29 is 93.1 µM (inactive); in the assay on NCI-H522 it was 47.2 µM (inactive); in the assay with HOP-62 it was > 100 µM (inactive); in the assay on M14 it was 80.7 µM (inactive); in the assay with CCRF-CEM, > 100 µM (inactive); in the assay on RPMI-8226, > 100 µM (inactive). Further, the GI50 is 81.3 µM (inactive) in the assay on HOP-92; > 100 µM (inactive) with MDA-MB-231; > 100 µM (inactive) with OVCAR-8; > 100 µM (inactive) in the assay with SF-539; 28.1 µM (inactive) in the assay on HL-60; > 100 µM (inactive) in the assay with SN12C. Besides, the GI50 in the assay with 786-0 is > 100 µM (inactive); in the assay with CAKI-1, 44.6 µM (inactive); with SK-MEL-28, > 100 µM (inactive); with KM12 it was 46.2 µM (inactive); in the assay on COLO 205, > 100 µM (inactive); with MOLT-4 it was 40.1 µM (inactive). Besides, the GI50 in the assay with IGROV-1 is 57.3 µM (inactive).
With `O=C(Nc1c(Cl)cc([N+](=O)[O-])cc1Cl)C(=O)C1C(=O)NC(=S)NC1=O`, the GI50 in the assay on HT-29, in the assay with NCI-H522, in the assay with HOP-62, with M14, in the assay with CCRF-CEM and in the assay on RPMI-8226 was > 100 µM (inactive) throughout. For the same molecule, the GI50 in the assay on HOP-92, with MDA-MB-231, in the assay with OVCAR-8, in the assay on SF-539, in the assay on HL-60 and in the assay with SN12C was > 100 µM (inactive) each time. The GI50 is > 100 µM (inactive) with 786-0; > 100 µM (inactive) in the assay with CAKI-1; > 100 µM (inactive) with SK-MEL-28; > 100 µM (inactive) with NCI-H460; > 100 µM (inactive) with KM12; > 10 µM (inactive) in the assay on MOLT-4. Also, the GI50 in the assay on IGROV-1 was > 100 µM (inactive).
Turning to `CC(NC(=O)C(C)C(=O)NCc1ccc(C(F)(F)F)cc1)C(N)=O` (stereo unspecified), the GI50 in the assay with HT-29 is > 100 µM (inactive); in the assay on NCI-H522 it was 34.9 µM (inactive); in the assay on M14, > 100 µM (inactive); in the assay with CCRF-CEM, > 100 µM (inactive); with RPMI-8226, > 100 µM (inactive); in the assay with HOP-92 it was > 100 µM (inactive). The GI50 in the assay with MDA-MB-231, in the assay with OVCAR-8, in the assay on SF-539, in the assay on HL-60, with SN12C and in the assay with 786-0 was > 100 µM (inactive) in each case. Further, the GI50 with CAKI-1, with NCI-H460, with KM12, in the assay on COLO 205, in the assay with MOLT-4 and in the assay with IGROV-1 was > 100 µM (inactive) throughout.
Turning to `CC(=O)c1c2c(cc3c1CC1(C3)Cc3cc4c(c(C(C)=O)c3C1)CCCC4)CCCC2`, the GI50 with HT-29 was 63.2 µM (inactive); with NCI-H522 it was 74.6 µM (inactive); in the assay on HOP-62, > 100 µM (inactive); in the assay with M14 it was > 100 µM (inactive); in the assay with CCRF-CEM it was 7.19 µM (inactive); with RPMI-8226, 21.3 µM (inactive). In addition, the GI50 with HOP-92 is 81.8 µM (inactive); with MDA-MB-231, > 100 µM (inactive); in the assay with OVCAR-8 it was > 100 µM (inactive); in the assay with SF-539 it was > 100 µM (inactive); in the assay on HL-60, 15.8 µM (inactive); in the assay with SN12C it was > 100 µM (inactive). Further, the GI50 is 45.6 µM (inactive) with 786-0; 28.7 µM (inactive) in the assay with KM12; > 100 µM (inactive) in the assay with COLO 205; 18.4 µM (inactive) in the assay on MOLT-4; > 100 µM (inactive) with IGROV-1.
For the molecule `O=C(Cc1ccccc1)Nn1c(-c2ccccc2)nc2ccccc2c1=O`, the GI50 in the assay with HT-29, with NCI-H522, in the assay on HOP-62, in the assay on M14, with CCRF-CEM and with RPMI-8226 was > 100 µM (inactive) throughout. In addition, the GI50 in the assay with HOP-92, in the assay on MDA-MB-231, with OVCAR-8, with SF-539, in the assay on HL-60 and with SN12C was > 100 µM (inactive) in each case. Also, the GI50 with 786-0, in the assay with SK-MEL-28, in the assay on NCI-H460, with KM12, in the assay on COLO 205 and in the assay on MOLT-4 was > 100 µM (inactive) each time. For the same molecule, in the assay with IGROV-1, the GI50 was > 100 µM (inactive).
Turning to `CC1(c2ccc(Cl)s2)CC(c2ccc(Cl)s2)=C(C#N)C(=C(C#N)C#N)N1` (stereo unspecified), the GI50 was 19.2 µM (inactive) in the assay with HT-29; 18.8 µM (inactive) in the assay on HOP-62; 19.4 µM (inactive) in the assay on M14; 16 µM (inactive) in the assay with CCRF-CEM; 32 µM (inactive) in the assay on RPMI-8226; 15.4 µM (inactive) in the assay on HOP-92. The GI50 with MDA-MB-231 was 23.2 µM (inactive); with OVCAR-8, 20.8 µM (inactive); in the assay with SF-539 it was 26.3 µM (inactive); in the assay with HL-60 it was 16.7 µM (inactive); with SN12C, 21 µM (inactive); in the assay on 786-0 it was 19.8 µM (inactive). Moreover, the GI50 was 19.1 µM (inactive) in the assay on CAKI-1; 19.4 µM (inactive) with SK-MEL-28; 29 µM (inactive) in the assay on NCI-H460; 18 µM (inactive) with KM12; 19.9 µM (inactive) in the assay on COLO 205; 28.1 µM (inactive) with MOLT-4. The GI50 with IGROV-1 was 19.9 µM (inactive).
For `Cc1nc(=O)[nH]c2c1C(=O)N(C(C)C)C(NC(C)C)S2` (stereo unspecified), the GI50 in the assay with HT-29 was > 100 µM (inactive); in the assay on NCI-H522 it was 47.2 µM (inactive); in the assay on HOP-62, > 100 µM (inactive); in the assay on M14, > 100 µM (inactive); in the assay with CCRF-CEM, > 100 µM (inactive); in the assay with RPMI-8226, > 100 µM (inactive). The GI50 is 97.7 µM (inactive) with HOP-92; > 100 µM (inactive) with MDA-MB-231; > 100 µM (inactive) with OVCAR-8; > 100 µM (inactive) in the assay on SF-539; > 100 µM (inactive) in the assay with HL-60; > 100 µM (inactive) in the assay with SN12C. The GI50 is > 100 µM (inactive) with 786-0; 55.1 µM (inactive) with CAKI-1; > 100 µM (inactive) in the assay on SK-MEL-28; > 100 µM (inactive) in the assay on KM12; > 100 µM (inactive) in the assay on COLO 205; > 100 µM (inactive) in the assay on MOLT-4. Further, the GI50 with IGROV-1 was > 100 µM (inactive).
Consider `CC(=O)Oc1ccc(C)c2c1[C@H]1CC[C@]3(C)[C@@H](OC(C)=O)CC[C@H]3[C@@H]1CC2`, for which the GI50 in the assay on HT-29 is 17.1 µM (inactive); with NCI-H522, 17.7 µM (inactive); in the assay with HOP-62, 18.1 µM (inactive); with M14 it was 17.5 µM (inactive); in the assay on CCRF-CEM it was 21.9 µM (inactive); with RPMI-8226 it was 19.4 µM (inactive). Also, the GI50 in the assay on HOP-92 is 16.9 µM (inactive); in the assay with MDA-MB-231 it was 18.2 µM (inactive); with OVCAR-8, 22.4 µM (inactive); in the assay with SF-539, 19.6 µM (inactive); with HL-60, 20.7 µM (inactive); in the assay with SN12C, 18.8 µM (inactive). Also, the GI50 was 21.3 µM (inactive) in the assay with 786-0; 17.3 µM (inactive) with SK-MEL-28; 20 µM (inactive) with NCI-H460; 18.6 µM (inactive) in the assay on KM12; 16 µM (inactive) in the assay with MOLT-4; 18.7 µM (inactive) in the assay with IGROV-1.
As for `Cc1ccc([N+](=O)[O-])cc1S(=O)(=O)Nc1ccc(C2=NN(C(=O)c3ccccc3)C(c3cccs3)C2)cc1` (stereo unspecified), the GI50 in the assay on HT-29 is 26.3 µM (inactive); in the assay on NCI-H522 it was 12.9 µM (inactive); in the assay on HOP-62, 20.9 µM (inactive); in the assay on M14, 24.1 µM (inactive); in the assay with CCRF-CEM it was 37.8 µM (inactive); in the assay with RPMI-8226, 31.6 µM (inactive). Moreover, the GI50 in the assay on HOP-92 was 12.6 µM (inactive); with MDA-MB-231 it was 16.3 µM (inactive); with OVCAR-8 it was 22.4 µM (inactive); in the assay with SF-539, 18.2 µM (inactive); in the assay on HL-60, 26.3 µM (inactive); in the assay with SN12C it was 22.4 µM (inactive). Moreover, the GI50 in the assay on 786-0 is 17.9 µM (inactive); with CAKI-1, 26.2 µM (inactive); in the assay on SK-MEL-28, 63.5 µM (inactive); with KM12, 32.7 µM (inactive); with COLO 205 it was 16.9 µM (inactive); in the assay with MOLT-4, 20.4 µM (inactive). In addition, the GI50 with IGROV-1 was 16.9 µM (inactive).
